Measured values reported in patent US20170045513A1, “METHODS OF DIAGNOSING CELIAC DISEASE USING IP-10” (ImmusanT, Inc., priority 2014, published 2017).
Non-standard residues stand in square brackets, D forms with d. pGlu = O=C1CC[C@@H](C(=O)O)N1

Assays:
Type in all cases: cell-based, human
gluten-reactive T cells [1] = assay: Overnight IFNγ ELISpot assay with fresh PBMC; details: for Percent of maximal response to individual gluten peptides, ELISp: after oral gluten challenge; for IFNγ ELISpot % max Mean: n = 5, blood after oral gluten challenge, individual peptides 5 μM (Peptide 2* of P14, Pepscan: 10 μg/mL (5.45 μM))
Summary of the method: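 Read-out is IFNγ spot-forming units per well, counted automatically after overnight culture of fresh PBMC (0.4 million/well) with single peptides (duplicate) or pools (triplicate). Donors: HLA-DQ2.5+ celiac patients on gluten-free diet, bled pre- and day 6 after 3-day oral gluten challenge.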

gluten-reactive T cells [2] = assay: 96-well plate whole blood cytokine release, IP-10 by MAGPIX multiplex bead assay; details: for Percent of maximal response to individual gluten peptides, IP-10: after oral gluten challenge; for IP-10 WB MAGPIX % max Mean: n = 10, blood after oral gluten challenge, individual peptides 5 μM (Peptide 2* of P14, Pepscan: 10 μg/mL (5.45 μM))
gluten-reactive T cells [3] = assay: Cytokine release assays taken together (IFNγ ELISpot, whole blood IFNγ and IP-10, in-tube IFNγ ELISA)
Summary of the method: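 Whole blood with peptides (P3 0.05-50 μg/mL; P13/P14 0.025-25 μM; […]), 24 h, 37 °C; plasma IFNγ/IP-10 by multiplex beads. Tube assay: 1 mL blood with P3 or CEF, 24 h, plasma IFNγ ELISA; elevated if >7.2 pg/mL above medium tube and SI >1.25. ELISpot overnight on fresh PBMC.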

[4] = blood collected after oral gluten challenge

Substance | Percent of maximal response to individual gluten peptides, ELISp (gluten-reactive T cells [1]; Subject 3, Max. 18 SFU) | Percent of maximal response to individual gluten peptides, ELISp (gluten-reactive T cells [1]; Subject 4, Max. 36 SFU) | Percent of maximal response to individual gluten peptides, ELISp (gluten-reactive T cells [1]; Subject 6, Max. 16 SFU) | Percent of maximal response to individual gluten peptides, ELISp (gluten-reactive T cells [1]; Subject 8, Max. 17 SFU) | Percent of maximal response to individual gluten peptides, ELISp (gluten-reactive T cells [1]; Subject 10, Max. 11 SFU) | IFNγ ELISpot % max Mean (gluten-reactive T cells [1]) [% max] | Percent of maximal response to individual gluten peptides, IP-10 (gluten-reactive T cells [2]; Subject 1, Max. 2331 pg/mL) | Percent of maximal response to individual gluten peptides, IP-10 (gluten-reactive T cells [2]; Subject 2, Max. 3646 pg/mL) | Percent of maximal response to individual gluten peptides, IP-10 (gluten-reactive T cells [2]; Subject 3, Max. 9492 pg/mL) | Percent of maximal response to individual gluten peptides, IP-10 (gluten-reactive T cells [2]; Subject 4, Max. 9463 pg/mL) | Percent of maximal response to individual gluten peptides, IP-10 (gluten-reactive T cells [2]; Subject 5, Max. 9336 pg/mL) | Percent of maximal response to individual gluten peptides, IP-10 (gluten-reactive T cells [2]; Subject 6, Max. 5863 pg/mL) | Percent of maximal response to individual gluten peptides, IP-10 (gluten-reactive T cells [2]; Subject 7, Max. 2330 pg/mL) | Percent of maximal response to individual gluten peptides, IP-10 (gluten-reactive T cells [2]; Subject 8, Max. 4019 pg/mL) | Percent of maximal response to individual gluten peptides, IP-10 (gluten-reactive T cells [2]; Subject 9, Max. 8349 pg/mL) | Percent of maximal response to individual gluten peptides, IP-10 (gluten-reactive T cells [2]; Subject 10, Max. 8922 pg/mL) | IP-10 WB MAGPIX % max Mean (gluten-reactive T cells [2]) | activity relative to Peptide 14 in the cytokine release assays (gluten-reactive T cells [3]; [4]) | also measured
(pE)PEQPIPEQPQPYPQQ-amide ([pGlu]PEQPIPEQPQPYPQQ-NH2; SMILES CC[C@H](C)[C@H](NC(=O)[C@@H]1CCCN1C(=O)[C@H](CCC(N)=O)NC(=O)[C@H](CCC(=O)O)NC(=O)[C@@H]1CCCN1C(=O)[C@@H]1CCC(=O)N1)C(=O)N1CCC[C@H]1C(=O)N[C@@H](CCC(=O)O)C(=O)N[C@@H](CCC(N)=O)C(=O)N1CCC[C@H]1C(=O)N[C@@H](CCC(N)=O)C(=O)N1CCC[C@H]1C(=O)N[C@@H](Cc1ccc(O)cc1)C(=O)N1CCC[C@H]1C(=O)N[C@@H](CCC(N)=O)C(=O)N[C@@H](CCC(N)=O)C(N)=O) [Peptide 3] | 50 % of max | 83 % of max | 69 % of max | 53 % of max | 9 % of max | 53 | 51 % of max | 14 % of max | ≥ 100 % of max | ≥ 100 % of max | 53 % of max | 43 % of max | 5 % of max | 100 % of max | 85 % of max | ≥ 100 % of max | 65 % max |  | IFNγ ELISpot response relative to Peptide 14 5 μM (gluten-reactive T cells [1]; Peptide 3 10 μg/mL (5.3 μM)): only one-half; whole blood IP-10 release relative to that stimulated by Peptide 14 (gluten-reactive T cells [2]; whole blood incubations after oral gluten challenge): one-quarter less; rank of activity among individual gluten peptides (gluten-reactive T cells [3]; [4]): second most active
(pE)PQPYPEQPQPFPQQ-amide ([pGlu]PQPYPEQPQPFPQQ-NH2; SMILES NC(=O)CC[C@H](NC(=O)[C@H](CCC(N)=O)NC(=O)[C@@H]1CCCN1C(=O)[C@H](Cc1ccccc1)NC(=O)[C@@H]1CCCN1C(=O)[C@H](CCC(N)=O)NC(=O)[C@@H]1CCCN1C(=O)[C@H](CCC(N)=O)NC(=O)[C@H](CCC(=O)O)NC(=O)[C@@H]1CCCN1C(=O)[C@H](Cc1ccc(O)cc1)NC(=O)[C@@H]1CCCN1C(=O)[C@H](CCC(N)=O)NC(=O)[C@@H]1CCCN1C(=O)[C@@H]1CCC(=O)N1)C(N)=O) [Peptide 8] | 44 % of max | 64 % of max | 31 % of max | 18 % of max | 27 % of max | 37 | 0 % of max | 5 % of max | ≥ 100 % of max | ≥ 100 % of max | 45 % of max | 2 % of max | 0 % of max | 39 % of max | 31 % of max | 94 % of max | 42 % max | approximately one-half to one-fifth as active as Peptide 14 | 
(pE)QPFPQPELPYPYPQ-amide ([pGlu]QPFPQPELPYPYPQ-NH2; SMILES CC(C)C[C@H](NC(=O)[C@H](CCC(=O)O)NC(=O)[C@@H]1CCCN1C(=O)[C@H](CCC(N)=O)NC(=O)[C@@H]1CCCN1C(=O)[C@H](Cc1ccccc1)NC(=O)[C@@H]1CCCN1C(=O)[C@H](CCC(N)=O)NC(=O)[C@@H]1CCC(=O)N1)C(=O)N1CCC[C@H]1C(=O)N[C@@H](Cc1ccc(O)cc1)C(=O)N1CCC[C@H]1C(=O)N[C@@H](Cc1ccc(O)cc1)C(=O)N1CCC[C@H]1C(=O)N[C@@H](CCC(N)=O)C(N)=O) [Peptide 16] | 22 % of max | 31 % of max | 19 % of max | 24 % of max | 27 % of max | 24 | 16 % of max | 45 % of max | ≥ 100 % of max | 69 % of max | 35 % of max | 4 % of max | 800 % of max | 1 % of max | 60 % of max | 11 % of max | 42 % max | no more than two-thirds as active as Peptide 14 | 
(pE)QPFPQPEQPFPLQPEQP-amide ([pGlu]QPFPQPEQPFPLQPEQP-NH2; SMILES CC(C)C[C@H](NC(=O)[C@@H]1CCCN1C(=O)[C@H](Cc1ccccc1)NC(=O)[C@@H]1CCCN1C(=O)[C@H](CCC(N)=O)NC(=O)[C@H](CCC(=O)O)NC(=O)[C@@H]1CCCN1C(=O)[C@H](CCC(N)=O)NC(=O)[C@@H]1CCCN1C(=O)[C@H](Cc1ccccc1)NC(=O)[C@@H]1CCCN1C(=O)[C@H](CCC(N)=O)NC(=O)[C@@H]1CCC(=O)N1)C(=O)N[C@@H](CCC(N)=O)C(=O)N1CCC[C@H]1C(=O)N[C@@H](CCC(=O)O)C(=O)N[C@@H](CCC(N)=O)C(=O)N1CCC[C@H]1C(N)=O) [Peptide 6] | 11 % of max | 56 % of max | 31 % of max | 0 % of max | 9 % of max | 21 | 34 % of max | 21 % of max | ≥ 100 % of max | ≥ 100 % of max | 8 % of max | 0 % of max | 1 % of max | 8 % of max | ≥ 100 % of max | 56 % of max | 43 % max | approximately one-half to one-fifth as active as Peptide 14 | 
(pE)QPFPQPEQPFSQQ-amide ([pGlu]QPFPQPEQPFSQQ-NH2; SMILES NC(=O)CC[C@H](NC(=O)[C@H](CCC(N)=O)NC(=O)[C@H](CO)NC(=O)[C@H](Cc1ccccc1)NC(=O)[C@@H]1CCCN1C(=O)[C@H](CCC(N)=O)NC(=O)[C@H](CCC(=O)O)NC(=O)[C@@H]1CCCN1C(=O)[C@H](CCC(N)=O)NC(=O)[C@@H]1CCCN1C(=O)[C@H](Cc1ccccc1)NC(=O)[C@@H]1CCCN1C(=O)[C@H](CCC(N)=O)NC(=O)[C@@H]1CCC(=O)N1)C(N)=O) [Peptide 7] | 0 % of max | 11 % of max | 6 % of max | 0 % of max | 9 % of max | 5 | 0 % of max | 7 % of max | 60 % of max | 20 % of max | 12 % of max | 0 % of max | 0 % of max | 3 % of max | 17 % of max | 3 % of max | 12 (12) % max |  | cytokine release / immunogenicity of individual peptide (gluten-reactive T cells [3]; HLA-DQ2.5+ celiac disease subjects after gluten challenge): weak or absent
